Source: patent US20240390448A1, “USE OF TRADITIONAL CHINESE MEDICINE COMPOSITION IN PREPARATION OF DRUGS FOR TREATING NEUROGENIC PULMONARY EDEMA” (SHANDONG NEW TIME PHARMACEUTICAL CO., LTD., priority 2021, published 2024)

Tested on: spinal cord injury-induced neurogenic pulmonary edema
Experiment: Model of spinal cord injury-induced neurogenic pulmonary edema (laminectomy and spinal cord injury)
Assay type: in vivo, ICR mice
Conditions: mice, example 1 granule 18 g/kg intragastric, dexamethasone 0.025 mg/kg intramuscular, 2 consecutive days from 24 h after molding, lungs taken on 3rd day, n = 8, x ± s
Source text: It is a typical molding method of an animal with neurogenic pulmonary edema by performing laminectomy on a rate to cause spine injury and thus inducing pulmonary edema of the mouse. The molding method is simple and easy to implement and high in success rate.
4-6 week old male ICR mice weighed 23-25 g were provided by the Lunan Pharmaceutical Co., Ltd and adaptively fed for one week before an experiment.
40 mice were taken and randomly divided into a sham surgery group, a model group, a dexamethasone group, an example 1 granule group, and a dexamethasone+example 1 granule group, with 8 mice in each group. The rats in the sham surgery group were subjected to laminectomy without spinal cord injury, while the rats in the model group and each administration group were subjected to laminectomy and spinal cord injury. […] The animals were anesthetized and sacrificed on the 3rd of the molding, the lungs were taken out, the wet weight was weighed, the lungs were placed in a 60° C. oven for drying for 48 h and taken out, the dry weight was weighed, and a ratio of wet weight/dry weight was calculated.

For `C[C@@H]1C[C@H]2[C@@H]3CCC4=CC(=O)C=C[C@]4(C)[C@@]3(F)[C@@H](O)C[C@]2(C)[C@@]1(O)C(=O)CO` [Dexamethasone, dexamethasone], which “Lung wet weight/dry weight” value is on record?
Its value is 4.92 ± 0.13.
